Article PMC4549706, “Rational Design of Highly Potent and Slow-Binding Cytochrome bc1 Inhibitor as Fungicide by Computational Substitution Optimization” (Scientific Reports, 2015)

Legend:
[1] = molecular target: T1, bc1 complex (Sus scrofa, UniProt P24964); assay: bc1 complex activity, DBH2-cytochrome c system (Assay 3); format: biochemical, porcine
T1 construct: T h e S C R f r o m p o r c i n e h e a r t; from tissue; host or cells: porcine heart
Procedure: Figure 3 Inhibitory kinetics of bc1 complex. (A) Chemical structures of AZ (azoxystrobin) and its analogues, compound 1 and compound 18. These compounds have a common pharmacophore structure: methoxyacrylate (MOA). […] Each reaction mixture contains phosphate buffered saline (PBS; 100 mM, pH 6.5), ethylenediaminetetraacetic acid (EDTA; 2 mM), lauryl maltoside (750 μM), oxidised cytochrome c (100 μM), SCR (0.05 nM), DBH2 (20–120 μM) and a specified amount of AZ (1, 0 nM; 2, 500 nM; 3, 1000 nM; 4, 2000 nM; 5, 3000 nM; and 6, 5000 nM). (C) Compound 1 is non-competitive with respect to cytochrome c. The reaction mixture contains 100 mM, pH 7.4), EDTA (0.3 mM), succinate (20 mM), SCR (0.1 nM), cytochrome c (1.13–15.6 μM), and a series of concentrations of compound 1 (1, 0 nM; 2, 10 nM; 3, 20 nM; 4, 40 nM; and 5, 60 nM). (D) Compound 1 is competitive with respect to DBH2. Each reaction mixture contains 100 mM, pH 6.5), EDTA (2 mM), lauryl maltoside (750 μM), oxidised cytochrome c (100 μM), SCR (0.05 nM), DBH2 (20–120 μM) and a specified amount of compound 1 (1, 0 nM; 2, 50 nM; 3, 100 nM; 4, 200 nM; 5, 300 nM; and 6, 500 nM).
(§1) Figure 4 Slow-binding inhibition mechanism. (A,B) Effect of various concentrations of cytochrome c and compound 18 on the inhibition of SCR activity. Each reaction mixture contains 100 mM, pH 7.4), EDTA (0.3 mM), succinate (20 mM), SCR (0.1 nM), and indicated amounts of cytochrome c and compound 18. The assays were performed in the presence of (A) 18 (35 nM) and a specified amount of cytochrome c (1, 4 μM; 2, 8 μM; 3, 20 μM; and 4, 48 μM) or (B) cytochrome c (60 μM) and various concentrations of compound 18 (1, 0 nM; 2, 15 nM; 3, 20 nM; 4, 30 nM; 5, 40 nM; and 6, 50 nM). Experimental data are shown as coloured dots and theoretical values are represented as black solid lines. Insets: plots of Kobs against concentration of (A) cytochrome c and (B) compound 18. […] Each reaction mixture contains 100 mM, pH 6.5), EDTA (2 mM), lauryl maltoside (750 μM), oxidised cytochrome c (100 μM), SCR (0.05 nM), and indicated amounts of DBH2 and compound 18. Two representative sets of inhibitory assays were performed in the presence of (C) DBH2 (20 μM) and a specified amount of compound 18 (1, 20 nM; 2, 40 nM; 3, 60 nM; 4, 80 nM), or (D) DBH2 (120 μM) and a specified amount of compound 18 (1, 40 nM; 2, 80 nM; 3, 120 nM; 4, 180 nM). Insets: plots of Kobs against concentration of compound 18. (E) Plot of the apparent rate constant A against concentration of DBH2. Inset: Plot of 1/A against concentration of DBH2. (F) Plot of the apparent rate constant B against concentration of DBH2.
(§2) The porcine succinate-cytochrome c reductase (SCR, the mixture of complex II and bc1) was prepared essentially according to the previously reported method. The enzymatic activities of SCR, complex II, and bc1 complex were analyzed in respective reaction mixtures as reported previously. Kinetic analyses for the inhibition mechanism were performed as previously described. […]
(§3) inhibitory kinetics study of bc1 inhibitors 8. […]
(§4) synthesized compounds against bc1 complex were examined by SCR. As previously described 9, the combined activity of SCR can be determined by using succinate and cytochrome c as substrates (Assay 1). We also measured the activity of complex II by using succinate and 2,6-dichloroindophenol (DCIP) as substrates (Assay 2), or the activity of bc1 complex by using decylubiquinol (DBH2) and cytochrome c as substrates (Assay 3). […]
redA 10, was used to represent the enzyme concentration. The three redox reactions used in this study were summarized as follows. […]

[2] = molecular target: T2, porcine succinate-cytochrome c reductase (SCR, the mixture of complex II and bc1) (Sus scrofa, UniProt P24964); assay: SCR activity, succinate-cytochrome c system (Assay 1); format: biochemical; conditions: for ligand efficiency (LE): from Ki against bc1 complex; for binding behaviour to bc1 complex (slow or fast binding): progress curves of SCR-catalysed reaction
T2 construct: T h e S C R f r o m p o r c i n e h e a r t; from tissue; host or cells: porcine heart
Procedure: as §1, §2, §3, §4
redA 10, was used to represent the enzyme concentration. The three redox reactions used in this study were summarized as follows.
Assay 1: succinate + cytochrome c3+ S C R fumarate + cytochrome c2+
Assay 2: succinate + DCIP complex II fumarate + DCIPH 2
Assay 3: DBH 2 + cytochrome c3+ bc1 complex DB + cytochrome c2+
All assays were performed at 23 °C. The enzymatic activity of SCR (Assay 1) was carried out in 1.8 mL of reaction mixture containing 100 mM PBS (pH 7.4), 0.3 mM EDTA, and indicated concentrations of succinate and oxidized cytochrome c (Sigma-Aldrich). The activity of succinate-ubiquinone reductase (complex II, Assay 2) was determined in essentially the same reaction mixture, except for the replacement of cytochrome c with DCIP (Alfa Aesar). […] DBH 2 was prepared through reduction of decylubiquinone by dithionite (Sigma-Aldrich) as previously described 11,12. The nonionic detergent LM was used to decrease the interfering non-enzymatic activity though it slightly […]

T2 sequence (P24964 whole entry, one chain of several): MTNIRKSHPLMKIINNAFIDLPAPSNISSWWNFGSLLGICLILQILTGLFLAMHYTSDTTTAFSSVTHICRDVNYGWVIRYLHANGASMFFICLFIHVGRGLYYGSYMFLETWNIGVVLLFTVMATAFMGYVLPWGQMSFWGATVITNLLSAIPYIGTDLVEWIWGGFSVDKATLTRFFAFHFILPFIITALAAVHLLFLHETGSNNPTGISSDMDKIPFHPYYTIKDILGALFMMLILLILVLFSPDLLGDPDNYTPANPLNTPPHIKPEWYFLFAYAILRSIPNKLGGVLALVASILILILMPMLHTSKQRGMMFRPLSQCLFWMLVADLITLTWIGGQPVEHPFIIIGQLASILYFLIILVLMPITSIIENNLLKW
T1 sequence (P24964 whole entry, one chain of several): as above

Row | Compound | Ki [1] | inhibition type with respect to DBH2 ([1]; Assay 3, varied DBH2) | ligand efficiency (LE) [2] | binding behaviour to bc1 complex (slow or fast binding) [2] | microscopic inhibition rate constant k+0 ([1]; Assay 3, varied DBH2) | microscopic inhibition rate constant k−0 ([1]; Assay 3, varied DBH2) | Ki [2] | inhibition type with respect to cytochrome c ([2]; Assay 1, varied cytochrome c) | ∆∆Gexp ([2]; Table S1, experimental binding free energy change vs compound 1) | ΔΔGexp ([2]; experimental binding free energy change relative to compound 1) | kon ([2]; read-out: association rate constant k+0) | koff ([2]; read-out: dissociation rate constant k−0)
1 | CO/C=C(/C(=O)OC)c1ccccc1Oc1cc(Oc2ccccc2C#N)ncn1 [AZ, Azoxystrobin, reference compound] | 395 ± 19.6 nM | competitive inhibitor | 0.3 kcal mol^−1 per non-H atom | fast-binding | – | – | – | – | – | – | – | –
2 | COC=C(C(=O)OC)c1ccccc1CSc1nc2cc(OC)ccc2s1 [Compound 18] | 13.4 ± 0.6 nM | competitive inhibitor | 0.45 kcal mol^−1 per non-H atom | slow-binding | 380000 ± 10000 M⁻¹ s⁻¹ | 0.00509 ± 0.00009 s⁻¹ | 4.1 ± 0.5 nM | non-competitive | -1.20 kcal/mol | -1.20 kcal/mol | 660000 ± 10000 M⁻¹ s⁻¹ | 0.00271 ± 0.00031 s⁻¹
